Experimental data from patent US8022218B2, “4-phenyl-5-oxo-1,4,5,6,7,8-hexahydroquinoline derivatives for the treatment of infertility” (N.V. Organon, priority 2005, dated 2011).

molecular target: T1, human FSH receptor (Homo sapiens, UniProt P23945); assay: Agonistic activity at the human FSH receptor expressed in CHO cells (CRE-luciferase reporter); assay type: cell-based; conditions: CHO cells stably transfected with human FSH receptor and CRE/luciferase reporter; tested 0.1 nM to 10 μM; read-out: EC50 (concentration of test compound causing half-maximal (50%) luciferase stimulation)
T1 construct: expressed in transfected cells; host or cells: Chinese Hamster Ovary (CHO) cells
T1 sequence (P23945 18-695): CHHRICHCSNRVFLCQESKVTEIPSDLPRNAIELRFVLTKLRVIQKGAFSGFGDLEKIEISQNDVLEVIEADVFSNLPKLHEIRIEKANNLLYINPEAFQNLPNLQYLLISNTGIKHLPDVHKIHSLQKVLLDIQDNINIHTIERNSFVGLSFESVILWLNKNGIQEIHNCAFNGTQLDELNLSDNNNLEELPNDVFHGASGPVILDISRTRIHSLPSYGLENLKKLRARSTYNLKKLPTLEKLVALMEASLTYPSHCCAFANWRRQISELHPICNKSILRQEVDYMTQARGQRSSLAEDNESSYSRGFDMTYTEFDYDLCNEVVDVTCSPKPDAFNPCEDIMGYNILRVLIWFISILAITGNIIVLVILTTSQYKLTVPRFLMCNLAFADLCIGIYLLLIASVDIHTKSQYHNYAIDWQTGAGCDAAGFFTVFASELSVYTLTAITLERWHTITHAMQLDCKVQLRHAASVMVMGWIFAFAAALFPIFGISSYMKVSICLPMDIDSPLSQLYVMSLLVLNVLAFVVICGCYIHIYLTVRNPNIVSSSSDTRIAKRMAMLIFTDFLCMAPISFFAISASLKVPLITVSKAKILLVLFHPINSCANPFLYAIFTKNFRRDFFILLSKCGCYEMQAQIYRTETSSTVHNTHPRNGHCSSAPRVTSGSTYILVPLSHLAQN
Protocol: Agonistic Activity of Compounds at the Human FSH Receptor Expressed in CHO Cells
Agonist activity of the compounds at the human FSH receptor was tested in Chinese Hamster Ovary (CHO) cells stably transfected with the human FSH receptor and cotransfected with a cAMP responsive element (CRE)/promotor directing the expression of a firefly luciferase reporter gene. Binding of the compound to the Gscoupled FSH receptor will result in an increase of cAMP, which in turn will induce an increased transactivation of the luciferase reporter construct. The luciferase activity was quantified using a luminescence counter. The compounds were tested in the concentration range of 0.1 nM to 10 μM. This assay was used to determine the EC50 (concentration of test compound causing half-maximal (50%) luciferase stimulation) and efficacy of the compounds compared to recombinant human FSH. For this, the software program XLfit (Excel version 2.0, built 30, ID Business Solutions Limited) was used.

Structure (SMILES)	EC50 [µM]
CCCC1CC(=O)C2=C(C1)NC(C)=C(C#N)C2c1cc(Br)c(OCc2cccc(NC(=O)c3cc(OC)c(OC)c(OC)c3)c2)c(OCC)c1 (stereo not drawn) [Example 1, N-{3-[2-Bromo-4-(3-cyano-2-methyl-5-oxo-7-propyl-1,4,5,6,7,8-hexahydro-quinolin-4-yl)-6-ethoxy-phenoxymethyl]-phenyl}-3,4,5-trimethoxy-benzamide]	< 0.01
CCCC1CC(=O)C2=C(C1)NC(C)=C(C#N)C2c1cc(Br)c(OCc2cccc(NC(=O)CN3CCN(CCO)CC3)c2)c(OCC)c1 (stereo not drawn) [Example 5, N-{3-[2-Bromo-4-(3-cyano-2-methyl-5-oxo-7-propyl-1,4,5,6,7,8-hexahydro-quinolin-4-yl)-6-ethoxy-phenoxymethyl]-phenyl}-2-[4-(2-hydroxy-ethyl)-piperazin-1-yl]-acetamide]	< 0.01
CCCC1CC(=O)C2=C(C1)NC(C)=C(C#N)C2c1cc(Br)c(OCc2cccc(C(=O)N3CC=CCC3)c2)c(OCC)c1 (stereo not drawn) [Example 7, 4-{3-Bromo-4-[3-(3,6-dihydro-2H-pyridine-1-carbonyl)-benzyloxy]-5-ethoxy-phenyl}-2-methyl-5-oxo-7-propyl-1,4,5,6,7,8-hexahydro-quinoline-3-carbonitrile]	< 0.01
CCCC1CC(=O)C2=C(C1)NC(C)=C(C#N)C2c1cc(Br)c(OCc2cccc(NC(=O)CCN(CCOC)CCOC)c2)c(OCC)c1 (stereo not drawn) [Example 11, 3-[Bis-(2-methoxy-ethyl)-amino]-N-{3-[2-bromo-4-(3-cyano-2-methyl-5-oxo-7-propyl-1,4,5,6,7,8-hexahydro-quinolin-4-yl)-6-ethoxy-phenoxymethyl]-phenyl}-propionamide]	< 0.01
CCCC1CC(=O)C2=C(C1)NC(C)=C(C#N)C2c1cc(Br)c(OCc2cccc(OCC(=O)N(C)C)c2)c(OCC)c1 (stereo not drawn) [Example 15, 2-{3-[2-Bromo-4-(3-cyano-2-methyl-5-oxo-7-propyl-1,4,5,6,7,8-hexahydro-quinolin-4-yl)-6-ethoxy-phenoxymethyl]-phenoxy}-N,N-dimethyl-acetamide]	< 0.01
CCCC1CC(=O)C2=C(C1)NC(C)=C(C#N)C2c1cc(Br)c(OCc2ccccc2NC(=O)c2ccco2)c(OCC)c1 (stereo not drawn) [Example 22, Furan-2-carboxylic acid {2-[2-bromo-4-(3-cyano-2-methyl-5-oxo-7-propyl-1,4,5,6,7,8-hexahydro-quinolin-4-yl)-6-ethoxy-phenoxymethyl]-phenyl}-amide]	< 0.01
C=CC(=O)Nc1ccccc1COc1c(Br)cc(C2C(C#N)=C(C)NC3=C2C(=O)CC(CCC)C3)cc1OCC (stereo not drawn) [Example 23, N-{2-[2-Bromo-4-(3-cyano-2-methyl-5-oxo-7-propyl-1,4,5,6,7,8-hexahydro-quinolin-4-yl)-6-ethoxy-phenoxymethyl]-phenyl}-acrylamide]	< 0.01
CCCC1CC(=O)C2=C(C1)NC(C)=C(C#N)C2c1cc(Br)c(OCc2ccccc2NC(=O)C2CC2)c(OCC)c1 (stereo not drawn) [Example 24, Cyclopropanecarboxylic acid {2-[2-bromo-4-(3-cyano-2-methyl-5-oxo-7-propyl-1,4,5,6,7,8-hexahydro-quinolin-4-yl)-6-ethoxy-phenoxymethyl]-phenyl}-amide]	< 0.01
CCCC1CC(=O)C2=C(C1)NC(C)=C(C#N)C2c1cc(Br)c(OCc2ccccc2NC(=O)OC)c(OCC)c1 (stereo not drawn) [Example 25]	< 0.01
CCCC1CC(=O)C2=C(C1)NC(C)=C(C#N)C2c1cc(Br)c(OCc2ccccc2NC(=O)NC)c(OCC)c1 (stereo not drawn) [Example 34, 1-{2-[2-Bromo-4-(3-cyano-2-methyl-5-oxo-7-propyl-1,4,5,6,7,8-hexahydro-quinolin-4-yl)-6-ethoxy-phenoxymethyl]-phenyl}-3-methyl-urea]	< 0.01
CCCC1CC(=O)C2=C(C1)NC(C)=C(C#N)C2c1cc(Br)c(OCc2cccnc2NC(=O)OC)c(OCC)c1 (stereo not drawn) [Example 38, {3-[2-Bromo-4-(3-cyano-2-methyl-5-oxo-7-propyl-1,4,5,6,7,8-hexahydro-quinolin-4-yl)-6-ethoxy-phenoxymethyl]-pyridin-2-yl}-carbamic acid methyl ester]	< 0.01
CCCC1CC(=O)C2=C(C1)NC(C)=C(C#N)C2c1cc(Br)c(OCc2cccn2S(C)(=O)=O)c(OCC)c1 (stereo not drawn) [Example 51, 4-[3-Bromo-5-ethoxy-4-(1-methanesulfonyl-1H-pyrrol-2-ylmethoxy)-phenyl]-2-methyl-5-oxo-7-propyl-1,4,5,6,7,8-hexahydro-quinoline-3-carbonitrile]	< 0.01
CCCC1CC(=O)C2=C(C1)NC(C)=C(C#N)C2c1cc(Br)c(NCc2cccnc2)c(OCC)c1 (stereo not drawn) [Example 56, 4-{3-Bromo-5-ethoxy-4-[(pyridin-3-ylmethyl)-amino]-phenyl}-2-methyl-5-oxo-7-propyl-1,4,5,6,7,8-hexahydro-quinoline-3-carbonitrile]	< 0.01
CCCC1CC(=O)C2=C(C1)NC(C)=C(C#N)C2c1cc(Br)c(OCc2ccccc2NCC2CC2)c(OCC)c1 (stereo not drawn) [Example 62, 4-{3-Bromo-4-[2-(cyclopropylmethyl-amino)-benzyloxy]-5-ethoxy-phenyl}-2-methyl-5-oxo-7-propyl-1,4,5,6,7,8-hexahydro-quinoline-3-carbonitrile]	< 0.01

Results, then the molecule that gave them:

EC50 [µM]	Structure (SMILES)
< 0.01	CCCC1CC(=O)C2=C(C1)NC(C)=C(C#N)C2c1cc(Br)c(OCc2cccc(NC(=O)CNCc3ccncc3)c2)c(OCC)c1 (stereo not drawn) [Example 3, N-{3-[2-Bromo-4-(3-cyano-2-methyl-5-oxo-7-propyl-1,4,5,6,7,8-hexahydro-quinolin-4-yl)-6-ethoxy-phenoxymethyl]-phenyl}-2-[(pyridin-4-ylmethyl)-amino]-acetamide]
< 0.01	CCCC1CC(=O)C2=C(C1)NC(C)=C(C#N)C2c1cc(Br)c(OCc2cccc(OCC(=O)N3CCOCC3)c2)c(OCC)c1 (stereo not drawn) [Example 17, 4-{3-Bromo-5-ethoxy-4-[3-(2-morpholin-4-yl-2-oxo-ethoxy)-benzyloxy]-phenyl}-2-methyl-5-oxo-7-propyl-1,4,5,6,7,8-hexahydro-quinoline-3-carbonitrile]
< 0.01	CCCC1CC(=O)C2=C(C1)NC(C)=C(C#N)C2c1cc(Br)c(OCc2cccc(NS(C)(=O)=O)c2)c(OCC)c1 (stereo not drawn) [Example 42, N-{3-[2-Bromo-4-(3-cyano-2-methyl-5-oxo-7-propyl-1,4,5,6,7,8-hexahydro-quinolin-4-yl)-6-ethoxy-phenoxymethyl]-phenyl}-methanesulfonamide]
< 0.01	C=CCOC(=O)Nc1ccc(COc2c(Br)cc(C3C(C#N)=C(C)NC4=C3C(=O)CC(CCC)C4)cc2OCC)cc1 (stereo not drawn) [Example 50, {4-[2-Bromo-4-(3-cyano-2-methyl-5-oxo-7-propyl-1,4,5,6,7,8-hexahydro-quinolin-4-yl)-6-ethoxy-phenoxymethyl]-phenyl}-carbamic acid allyl ester]
< 0.01	CCCC1CC(=O)C2=C(C1)NC(C)=C(C#N)C2c1cc(Br)c(OCc2ccc(C(=N)NC)cc2)c(OCC)c1 (stereo not drawn) [Example 54, 4-[2-Bromo-4-(3-cyano-2-methyl-5-oxo-7-propyl-1,4,5,6,7,8-hexahydro-quinolin-4-yl)-6-ethoxy-phenoxymethyl]-N-methyl-benzamidine]
< 0.01	CCCC1CC(=O)C2=C(C1)NC(C)=C(C#N)C2c1cc(Br)c(NCc2ccccc2NS(C)(=O)=O)c(OCC)c1 (stereo not drawn) [Example 58, N-(2-{[2-Bromo-4-(3-cyano-2-methyl-5-oxo-7-propyl-1,4,5,6,7,8-hexahydro-quinolin-4-yl)-6-ethoxy-phenylamino]-methyl}-phenyl)-methanesulfonamide]
< 0.01	CCC[C@@H]1CC(=O)C2=C(C1)NC(C)=C(C#N)[C@H]2c1cc(Br)c(OCc2cc(F)c(F)cc2NS(C)(=O)=O)c(OCC)c1 [Example 72, N-{2-[2-Bromo-4-((4R,7S)-3-cyano-2-methyl-5-oxo-7-propyl-1,4,5,6,7,8-hexahydro-quinolin-4-yl)-6-ethoxy-phenoxymethyl]-4,5-difluoro-phenyl}-methanesulfonamide]
